{"source": "ChEMBL document CHEMBL1142959", "about": "“Semisynthetic approaches to laspartomycin analogues” (2007)", "note": "Positions of bridges follow the written chain, without caps; N, C: chain ends. Non-standard residues stand in square brackets, D forms with d. Residues, ends and D or L forms follow the SMILES beside them. *: point of attachment. Lauroyl = CCCCCCCCCCCC(=O)*; Pip = O=C(O)[C@@H]1CCCCN1; Dap = NC[C@H](N)C(=O)O", "data": [{"system": "Staphylococcus aureus", "experiment": "(§1) Antimicrobial activity against methicillin-sensitive Staphylococcus aureus Smith ATCC 19636 by tube dilution method", "assay_type": "functional", "details": "not given", "units": {"MIC": "µg/mL"}, "values": [{"smiles": "CCCCCCCCCCCCCCC(=O)N[C@@H](Cc1c[nH]c2ccccc12)C(=O)N[C@@H](CC(=O)O)C(=O)N[C@H]1CNC(=O)[C@@H]2CCCN2C(=O)[C@H]([C@H](C)CC)NC(=O)[C@H]([C@@H](C)O)NC(=O)CNC(=O)[C@H](CC(=O)O)NC(=O)CNC(=O)[C@H](CC(=O)O)NC(=O)CNC(=O)[C@@H]2CCCCN2C1=O", "MIC": 16}, {"smiles": "CCCCCCCCCCCCCCC(=O)N[C@@H](CC(=O)O)C(=O)N[C@H]1CNC(=O)[C@@H]2CCCN2C(=O)[C@H]([C@H](C)CC)NC(=O)[C@H]([C@@H](C)O)NC(=O)CNC(=O)[C@H](CC(=O)O)NC(=O)CNC(=O)[C@H](CC(=O)O)NC(=O)CNC(=O)[C@@H]2CCCCN2C1=O", "MIC": ">128"}]}, {"system": "Staphylococcus aureus", "experiment": "as §1", "assay_type": "functional", "details": "Staphylococcus aureus, Smith; read-out: MIC", "units": {"MIC": "µg/mL"}, "values": [{"smiles": "CCCCCCCCCCCCCCC(=O)N[C@H](Cc1ccccc1)C(=O)N[C@@H](CC(=O)O)C(=O)N[C@H]1CNC(=O)[C@@H]2CCCN2C(=O)[C@H]([C@H](C)CC)NC(=O)[C@H]([C@@H](C)O)NC(=O)CNC(=O)[C@H](CC(=O)O)NC(=O)CNC(=O)C(CC(=O)O)NC(=O)CNC(=O)[C@@H]2CCCCN2C1=O", "note": "(single isomer, unassigned)", "MIC": 4}, {"smiles": "CCCCCCCCCCCCCCC(=O)N[C@@H](CCC(=O)O)C(=O)N[C@H]1CNC(=O)[C@@H]2CCCN2C(=O)[C@H]([C@H](C)CC)NC(=O)[C@H]([C@@H](C)O)NC(=O)CNC(=O)[C@H](CC(=O)O)NC(=O)CNC(=O)C(CC(=O)O)NC(=O)CNC(=O)[C@@H]2CCCCN2C1=O", "note": "(single isomer, unassigned)", "MIC": 64}, {"smiles": "CCCCCCCCCCCCCCCCNC(=O)N[C@@H](CC(N)=O)C(=O)N[C@H]1CNC(=O)[C@@H]2CCCN2C(=O)[C@H]([C@H](C)CC)NC(=O)[C@H]([C@@H](C)O)NC(=O)CNC(=O)[C@H](CC(=O)O)NC(=O)CNC(=O)[C@H](CC(=O)O)NC(=O)CNC(=O)[C@@H]2CCCCN2C1=O", "MIC": 2}, {"smiles": "CCCCCCCCCCCCc1ccc(C(=O)N[C@@H](CC(=O)O)C(=O)N[C@H]2CNC(=O)[C@@H]3CCCN3C(=O)[C@H]([C@H](C)CC)NC(=O)[C@H]([C@@H](C)O)NC(=O)CNC(=O)[C@H](CC(=O)O)NC(=O)CNC(=O)C(CC(=O)O)NC(=O)CNC(=O)[C@@H]3CCCCN3C2=O)cc1", "note": "(single isomer, unassigned)", "MIC": 2}, {"smiles": "CCCCCCCCCCCCS(=O)(=O)N[C@@H](CC(N)=O)C(=O)N[C@H]1CNC(=O)[C@@H]2CCCN2C(=O)[C@H]([C@H](C)CC)NC(=O)[C@H]([C@@H](C)O)NC(=O)CNC(=O)[C@H](CC(=O)O)NC(=O)CNC(=O)[C@H](CC(=O)O)NC(=O)CNC(=O)[C@@H]2CCCCN2C1=O", "MIC": 16}, {"smiles": "CCCCCCCCCCCC(=O)N[C@@H](Cc1c[nH]c2ccccc12)C(=O)N[C@@H](CC(N)=O)C(=O)N[C@H]1CNC(=O)[C@@H]2CCCN2C(=O)[C@H]([C@@H](C)CC)NC(=O)[C@H]([C@@H](C)O)NC(=O)CNC(=O)[C@H](CC(=O)O)NC(=O)CNC(=O)[C@H](CC(=O)O)NC(=O)CNC(=O)[C@@H]2CCCCN2C1=O", "note": "(Lauroyl-WN[Dap][Pip]GDGDGTIP; lactam 3-C)", "MIC": 8}, {"smiles": "CCCCCCCCCC(=O)N[C@@H](CC(=O)O)C(=O)N[C@H]1CNC(=O)[C@@H]2CCCN2C(=O)[C@H]([C@H](C)CC)NC(=O)[C@H]([C@@H](C)O)NC(=O)CNC(=O)[C@H](CC(=O)O)NC(=O)CNC(=O)C(CC(=O)O)NC(=O)CNC(=O)[C@@H]2CCCCN2C1=O", "note": "(single isomer, unassigned)", "MIC": "> 64"}, {"smiles": "CC[C@@H](C)[C@@H]1NC(=O)[C@H]([C@@H](C)O)NC(=O)CNC(=O)[C@H](CC(=O)O)NC(=O)CNC(=O)C(CC(=O)O)NC(=O)CNC(=O)[C@@H]2CCCCN2C(=O)[C@@H](NC(=O)[C@H](CC(=O)O)NC(=O)CCCCCCCCCCOc2ccccc2)CNC(=O)[C@@H]2CCCN2C1=O", "note": "(single isomer, unassigned)", "MIC": "> 64"}, {"smiles": "CCCCCCCCCCCCCCC(=O)N[C@@H](CCCCN)C(=O)N[C@@H](CC(=O)O)C(=O)N[C@H]1CNC(=O)[C@@H]2CCCN2C(=O)[C@H]([C@H](C)CC)NC(=O)[C@H]([C@@H](C)O)NC(=O)CNC(=O)[C@H](CC(=O)O)NC(=O)CNC(=O)C(CC(=O)O)NC(=O)CNC(=O)[C@@H]2CCCCN2C1=O", "note": "(single isomer, unassigned)", "MIC": 16}, {"smiles": "CCCCCCCCCCCCCCCCS(=O)(=O)N[C@@H](Cc1c[nH]c2ccccc12)C(=O)N[C@@H](CC(=O)O)C(=O)N[C@H]1CNC(=O)[C@@H]2CCCN2C(=O)[C@H]([C@H](C)CC)NC(=O)[C@H]([C@@H](C)O)NC(=O)CNC(=O)[C@H](CC(=O)O)NC(=O)CNC(=O)[C@H](CC(=O)O)NC(=O)CNC(=O)[C@@H]2CCCCN2C1=O", "MIC": 4}, {"smiles": "CCCCCCCCCCCCCCC(=O)N[C@@H](C)C(=O)N[C@@H](CC(=O)O)C(=O)N[C@H]1CNC(=O)[C@@H]2CCCN2C(=O)[C@H]([C@H](C)CC)NC(=O)[C@H]([C@@H](C)O)NC(=O)CNC(=O)[C@H](CC(=O)O)NC(=O)CNC(=O)C(CC(=O)O)NC(=O)CNC(=O)[C@@H]2CCCCN2C1=O", "note": "(single isomer, unassigned)", "MIC": "> 64"}, {"smiles": "CCCCCCCCCCCCCCCCS(=O)(=O)N[C@@H](Cc1c[nH]c2ccccc12)C(=O)N[C@H]1CNC(=O)[C@@H]2CCCN2C(=O)[C@H]([C@H](C)CC)NC(=O)[C@H]([C@@H](C)O)NC(=O)CNC(=O)[C@H](CC(=O)O)NC(=O)CNC(=O)[C@H](CC(=O)O)NC(=O)CNC(=O)[C@@H]2CCCCN2C1=O", "MIC": "> 64"}, {"smiles": "CCCCCCCCCCCCCCC(=O)N[C@H]1CNC(=O)[C@@H]2CCCN2C(=O)[C@H]([C@H](C)CC)NC(=O)[C@H]([C@@H](C)O)NC(=O)CNC(=O)[C@H](CC(=O)O)NC(=O)CNC(=O)C(CC(=O)O)NC(=O)CNC(=O)[C@@H]2CCCCN2C1=O", "note": "(single isomer, unassigned)", "MIC": "> 64"}, {"smiles": "CCCCCCCCCCCCCCC(=O)N[C@@H](Cc1c[nH]c2ccccc12)C(=O)N[C@@H](CC(=O)O)C(=O)N[C@H]1CNC(=O)[C@@H]2CCCN2C(=O)[C@H]([C@H](C)CC)NC(=O)[C@H]([C@@H](C)O)NC(=O)CNC(=O)[C@H](CC(=O)O)NC(=O)CNC(=O)C(CC(=O)O)NC(=O)CNC(=O)[C@@H]2CCCCN2C1=O", "note": "(single isomer, unassigned)", "MIC": 8}, {"smiles": "CCCCCCCCCC(=O)N[C@@H](Cc1c[nH]c2ccccc12)C(=O)N[C@@H](CC(=O)O)C(=O)N[C@H]1CNC(=O)[C@@H]2CCCN2C(=O)[C@H]([C@H](C)CC)NC(=O)[C@H]([C@@H](C)O)NC(=O)CNC(=O)[C@H](CC(=O)O)NC(=O)CNC(=O)[C@H](CC(=O)O)NC(=O)CNC(=O)[C@@H]2CCCCN2C1=O", "MIC": "> 64"}, {"smiles": "CC[C@@H](C)[C@@H]1NC(=O)[C@H]([C@@H](C)O)NC(=O)CNC(=O)[C@H](CC(=O)O)NC(=O)CNC(=O)[C@H](CC(=O)O)NC(=O)CNC(=O)[C@@H]2CCCCN2C(=O)[C@@H](NC(=O)[C@H](CC(=O)O)NC(=O)/C=C/CCCCCCCCCC(C)C)CNC(=O)[C@@H]2CCCN2C1=O", "note": "[LASPARTOMYCIN C]", "MIC": 2}, {"smiles": "CCCCCCCCCCc1ccc(C(=O)N[C@@H](CC(=O)O)C(=O)N[C@H]2CNC(=O)[C@@H]3CCCN3C(=O)[C@H]([C@H](C)CC)NC(=O)[C@H]([C@@H](C)O)NC(=O)CNC(=O)[C@H](CC(=O)O)NC(=O)CNC(=O)C(CC(=O)O)NC(=O)CNC(=O)[C@@H]3CCCCN3C2=O)cc1", "note": "(single isomer, unassigned)", "MIC": 1}]}]}
